US8686075B2, “Polysulfone compositions and methods for the manufacture and use thereof” (SABIC Innovative Plastics IP B.V., priority 2011, dated 2014)

Tests used:
[1] = molecular target: T1, recombinant human estradiol receptors (rhER) alpha (α) (Homo sapiens, UniProt P03372); assay: competitive binding assay, displacement of [3H] estradiol radioligand from rhER alpha; conditions: text statements, tested up to 2.5×E-4 M
T1 sequence (P03372 1-595): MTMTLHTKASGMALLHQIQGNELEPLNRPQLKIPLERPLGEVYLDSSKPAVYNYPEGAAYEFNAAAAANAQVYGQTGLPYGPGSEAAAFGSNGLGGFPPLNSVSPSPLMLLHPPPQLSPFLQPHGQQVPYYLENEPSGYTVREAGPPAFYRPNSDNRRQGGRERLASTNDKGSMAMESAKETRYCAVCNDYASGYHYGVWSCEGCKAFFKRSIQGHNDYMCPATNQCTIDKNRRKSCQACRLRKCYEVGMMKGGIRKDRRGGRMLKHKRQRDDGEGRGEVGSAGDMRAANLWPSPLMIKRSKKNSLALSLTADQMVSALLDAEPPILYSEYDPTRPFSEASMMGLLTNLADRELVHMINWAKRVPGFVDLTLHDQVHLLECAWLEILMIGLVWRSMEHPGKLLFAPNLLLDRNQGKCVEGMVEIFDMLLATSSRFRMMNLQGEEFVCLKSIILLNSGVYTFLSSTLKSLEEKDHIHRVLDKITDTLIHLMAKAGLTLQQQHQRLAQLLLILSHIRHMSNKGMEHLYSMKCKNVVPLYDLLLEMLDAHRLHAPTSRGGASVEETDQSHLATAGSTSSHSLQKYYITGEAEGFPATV

[2] = molecular target: recombinant human estradiol receptors (rhER) beta 1 (β1) (Homo sapiens, UniProt Q92731); assay: competitive binding assay, displacement of [3H] estradiol radioligand from rhER beta 1; conditions: tested up to 2.5×E-4 M

Molecule | estradiol binding / displacement at the alpha estradiol receptor (in words) [1] | estradiol binding / displacement at the beta estradiol receptor (in words) ([2]; text statements) | also measured
CC(C)(c1ccccc1)c1ccc(O)cc1 [B, p-Cumyl Phenol, reference compound] | displace estradiol at low concentrations | displace estradiol at low concentrations | 
Oc1cccc(O)c1 [Example 4, Resorcinol] | no detectible estradiol displacement | no detectible estradiol displacement | estradiol binding / displacement at the alpha estradiol receptor (in words) ([1]; listed as resorcinol): no estradiol binding; estradiol binding / displacement at the beta estradiol receptor (in words) ([2]; text statements, listed as resorcinol): no estradiol binding
Biphenol [Example 6] | no displacement of the estradiol | no estradiol binding | estradiol binding / displacement at the alpha estradiol receptor (in words) ([1]; listed as biphenol): no estradiol binding
Cc1cc(O)ccc1O [Example 8, Methyl Hydroquinone] |  | no alpha or beta estradiol displacement | estradiol binding / displacement at the beta estradiol receptor (in words) ([2]; text statements, listed as methyl hydroquinone): no estradiol binding
Bisphenol Acetophenone [D, reference compound] | displace estradiol at low concentrations |  | 
O=C1OC(c2ccc(O)cc2)(c2ccc(O)cc2)c2ccccc21 [O, Phenolphthalein, reference compound] |  | estradiol displacement at low concentration | 
Tetra Methyl BPA [Example 1] |  | no detectible estradiol displacement | estradiol binding / displacement at the beta estradiol receptor (in words) ([2]; listed as tetra methyl bisphenol-A): no estradiol binding
Fluorenone Bis-o-Cresol [reference compound] |  | displace estradiol at low concentrations | 
O=C1c2ccccc2C(c2ccc(O)cc2)(c2ccc(O)cc2)N1c1ccccc1 [Example 3, N-Phenyl Phenolphthalein Bisphenol] | no detectible estradiol displacement | no detectible estradiol displacement | estradiol binding / displacement at the alpha estradiol receptor (in words) ([1]; listed as N-phenyl phenolphthalein bisphenol): no estradiol binding; estradiol binding / displacement at the beta estradiol receptor (in words) ([2]; text statements, listed as N-phenyl phenolphthalein bisphenol): no estradiol binding
Cc1cc(C2(c3ccc(O)c(C)c3)CCCCC2)ccc1O [G, Dimethyl Cyclohexyl Bisphenol, reference compound] | displace estradiol at low concentrations | displace estradiol at low concentrations | 
Diphenolic Acid Methyl Ester [F, reference compound] | displace estradiol at low concentrations | displace estradiol at low concentrations | 
CC(C)(c1ccc(O)cc1)c1cccc(C(C)(C)c2ccc(O)cc2)c1 [K, Bisphenol M, reference compound] | displace estradiol at low concentrations | displace estradiol at low concentrations | 
Bis Hydroxy Phenyl Menthane [reference compound] | displace estradiol at low concentrations | displace estradiol at low concentrations | 
Dihydroxy Diphenyl Ether [Example C, reference compound] |  | displace estradiol at low concentrations | 
